Assays:
L. crispatus and E. coli = assay: Therapeutic Effect Protocol: L. crispatus / E. coli co-culture, ratio after 36 hours; assay type: cell-based, Lactobacillus crispatus; E. coli; details: for Therapeutic Efficacy Results (Lactobacillus/E. coli) 0.10%: nitrogen compound 0.10 wt/vol % with 1.0 wt/vol % α methyl-D glucoside (10:1); for Therapeutic Efficacy Results (Lactobacillus/E. coli) 0.10% / Therapeutic Efficacy Results (Lactobacillus/E. coli) 0.50%: 36 hours anaerobic co-culture, 37° C.; for Therapeutic Efficacy Results (Lactobacillus/E. coli) 0.50%: nitrogen compound 0.50 wt/vol % with 1.0 wt/vol % α methyl-D glucoside (2:1)
Procedure, shortened: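 L. crispatus and E. coli were mixed 1,000:1 (10^5-10^6 and 100-1,000 CFU per 5 mL tube) in LAPT-g medium at pH 6.5, containing 1% α-methyl-D-glucoside plus nitrogen compound at 0.1-1% w/v, in duplicate. After 36 h anaerobic incubation at 37 °C, each species was counted by selective plating (MRS anaerobic, TSA aerobic), and the L. crispatus:E. coli ratio and final pH were recorded.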

[1] = Solubility screening of the composition (visual precipitates or turbidity); assay type: physicochemical; details: for Solubility of the composition, 0.50%: nitrogen compound 0.50 wt/vol % with 1.0 wt/vol % α methyl-D glucoside in medium; for Solubility of the composition, 1.00%: nitrogen compound 1.00 wt/vol % with 1.0 wt/vol % α methyl-D glucoside in medium
Excerpt: Each composition in Table 1 went through initial screening measures of solubility and initial pH (“I pH”). […] When a specific concentration of a nitrogen containing compound was insoluble, the initial and final pH (“F pH”) of the combined composition was not measured and accordingly are each marked as “NM.” Additionally, initial pH of the composition was checked as a screening measure. The initial pH was marked as either Low (“L”), High (“H”), or Pass (“P”). A Low initial pH corresponds to an initial pH being less than 5.5, a High initial pH corresponds to an initial pH being greater than 6.5, and a Pass initial pH corresponds to the pH being at or between 5.5-6.5. […] As part of the Therapeutic Effect Protocol, a final pH was also measured after the compositions that were tested against the Lactobacillus and E. coli.
All of the ingredients in Table 2 were combined and the pH was adjusted to 6.5. […] To evaluate the effect of various nitrogen containing therapeutic agents on the growth of bacteria, the LAPT-g media, prepared as described above, was supplemented with various nitrogen containing compound therapeutic agents to a final test concentration between 0.1 and 1.0%. As initial screening measures, solubility and initial pH of each composition were checked. If a specific composition was insoluble (as detected by visual indication of precipitates or turbidity), then no further therapeutic efficacy testing was undertaken on that composition. Additionally, if the initial pH of the composition was below 5.5 (“Low”) or was above 6.5 (“High”), then no further therapeutic efficacy testing was undertaken on that composition.

[2] = Initial pH screening of the composition; assay type: physicochemical; details: for I pH (initial pH), 0.10%: nitrogen compound 0.10 wt/vol % with 1.0 wt/vol % α methyl-D glucoside in medium; for I pH (initial pH), 0.50%: nitrogen compound 0.50 wt/vol % with 1.0 wt/vol % α methyl-D glucoside in medium
Procedure, shortened: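 Compounds were added to LAPT-g medium (pH adjusted to 6.5) at a final 0.1-1.0%. Solubility was judged visually by precipitate or turbidity, and insoluble compositions got no pH measurement. Initial pH was scored Low (<5.5), High (>6.5) or Pass (5.5-6.5), and only soluble Pass compositions went on to efficacy testing.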

Solubility of the composition, 0.50% [1] | Solubility of the composition, 1.00% [1] | Compound | Therapeutic Efficacy Results (Lactobacillus/E. coli) 0.10% (L. crispatus and E. coli) | I pH (initial pH), 0.10% [2] | Therapeutic Efficacy Results (Lactobacillus/E. coli) 0.50% (L. crispatus and E. coli) | Therapeutic effect when ratio α methyl-D glucoside : nitrogen compound is at least about 2:1, but not at 1:1 (L. crispatus and E. coli; with α methyl-D glucoside, ratio at least about 2:1, not 1:1) | I pH (initial pH), 0.50% [2]
Insol. | Insol. | CC[C@H](C)[C@H](N)C(=O)O [L-Isoleucine] | 1.51 | P (a Pass initial pH corresponds to the pH being at or between 5.5-6.5) |  |  | 
 | Insol. | CC(C)C[C@H](N)C(=O)O [L-Leucine] | 2.9 | P (a Pass initial pH corresponds to the pH being at or between 5.5-6.5) | 0.24 | provided a therapeutic effect | P (a Pass initial pH corresponds to the pH being at or between 5.5-6.5)
Insol. | Insol. | N[C@@H](Cc1ccccc1)C(=O)O [L-Phenylalanine] | 0.09 | P (a Pass initial pH corresponds to the pH being at or between 5.5-6.5) |  |  | 
Insol. | Insol. | O=c1cc[nH]c(=O)[nH]1 [Uracil] | 0.43 | P (a Pass initial pH corresponds to the pH being at or between 5.5-6.5) |  |  | 

Compound | Solubility of the composition, 0.50% [1] | Solubility of the composition, 1.00% [1] | Therapeutic Efficacy Results (Lactobacillus/E. coli) 0.10% (L. crispatus and E. coli) | I pH (initial pH), 0.10% [2] | Therapeutic Efficacy Results (Lactobacillus/E. coli) 0.50% (L. crispatus and E. coli) | Therapeutic effect when ratio α methyl-D glucoside : nitrogen compound is at least about 2:1, but not at 1:1 (L. crispatus and E. coli; with α methyl-D glucoside, ratio at least about 2:1, not 1:1) | I pH (initial pH), 0.50% [2]
N[C@@H](Cc1c[nH]c2ccccc12)C(=O)O [L-Tryptophan] |  | Insol. | 0.66 | P (a Pass initial pH corresponds to the pH being at or between 5.5-6.5) | 0.06 |  | P (a Pass initial pH corresponds to the pH being at or between 5.5-6.5)
